In patent US7273865B2, “Thiazolopyridine” (Hoffmann-La Roche Inc., priority 2003, dated 2007):

What was measured:
[1] = molecular target: T1, human adenosine A2A receptor (Homo sapiens, UniProt P29274); assay: Human adenosine A2A receptor [3H]-SCH-58261 binding assay; settings: for Selectivity: hA2A versus hA1; for Ki: recombinant receptor expressed in CHO cells, [3H]-SCH-58261 1 nM, SPA, read-out: hA2A (converted)
T1 construct: expressed in transfected cells; host or cells: CHO cells, semliki forest virus expression system; membranes used
T1 sequence (P29274 whole entry): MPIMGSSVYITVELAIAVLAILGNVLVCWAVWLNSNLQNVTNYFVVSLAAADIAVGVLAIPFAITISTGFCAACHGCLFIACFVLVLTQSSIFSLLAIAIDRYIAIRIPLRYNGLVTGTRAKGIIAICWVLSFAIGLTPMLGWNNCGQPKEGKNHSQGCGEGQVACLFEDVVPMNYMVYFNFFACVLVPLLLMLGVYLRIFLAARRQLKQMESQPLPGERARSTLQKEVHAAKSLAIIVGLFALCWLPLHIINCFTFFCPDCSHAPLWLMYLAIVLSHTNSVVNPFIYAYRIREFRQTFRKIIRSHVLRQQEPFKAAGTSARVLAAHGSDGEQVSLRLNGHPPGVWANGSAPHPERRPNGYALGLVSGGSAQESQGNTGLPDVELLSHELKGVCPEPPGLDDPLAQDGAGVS
Procedure: (§1) The human adenosine A2A receptor was recombinantly expressed in Chinese hamster ovary (CHO) cells using the semliki forest virus expression system. Cells were harvested, washed twice by centrifugation, homogenized and again washed by centrifugation. The [^3H]-SCH-58261 (Dionisotti et al., 1997, Br J Pharmacol 121, 353; 1 nM) binding assay was carried out in 96-well plates in the presence of (per well) approximately 2.5 μg of membrane protein, 0.5 mg of Ysi-poly-1-lysine SPA beads and 0.1 U adenosine deaminase in a final volume of 200 μl of buffer (containing 50 mM Tris, 120 mM NaCl, 5 mM KCl, 2 mM CaCl2 and 10 mM MgCl2 (pH 7.4)). Non-specific binding was defined using xanthine amine congener (XAC; 2 μM). Compounds were tested at 10 concentrations from 10 μM-0.3 nM. All assays were conducted in duplicate and repeated at least two times. Assay plates were incubated for 1 hour at room temperature before centrifugation and then bound ligand determined using a Packard Topcount scintillation counter. IC50 values were calculated using a non-linear curve fitting program and Ki values calculated using the Cheng-Prussoff equation.

[2] = molecular target: T2, human adenosine A1 receptor (Homo sapiens, UniProt P30542); assay: Human adenosine A1 receptor [3H]-DPCPX binding assay; settings: recombinant receptor expressed in CHO cells, [3H]-DPCPX 0.6 nM, SPA; read-out: hA1 (converted)
T2 construct: expressed in transfected cells; host or cells: CHO cells, semliki forest virus expression system; membranes used
T2 sequence (P30542 1-326): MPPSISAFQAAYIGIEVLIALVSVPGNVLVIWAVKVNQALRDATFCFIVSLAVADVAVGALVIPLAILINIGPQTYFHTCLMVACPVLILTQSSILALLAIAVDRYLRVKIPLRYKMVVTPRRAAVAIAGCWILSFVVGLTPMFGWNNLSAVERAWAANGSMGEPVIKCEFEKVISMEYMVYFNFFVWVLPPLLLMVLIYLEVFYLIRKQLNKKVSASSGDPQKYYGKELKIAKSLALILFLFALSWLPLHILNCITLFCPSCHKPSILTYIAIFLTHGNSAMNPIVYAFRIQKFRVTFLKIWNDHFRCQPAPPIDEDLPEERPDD
Procedure: as §1, with “A1” for “A2A”, “[^3H]-DPCPX (([propyl-3H]8-cyclopentyl-1,3-dipropyxanthine); 0.6” for “[^3H]-SCH-58261 (Dionisotti et al., 1997, Br J Pharmacol 121, 353; 1”

| SMILES | Selectivity [1] | Ki [1] [µM] | Ki [2] [µM] |
| --- | --- | --- | --- |
| COc1cnc(N2CCOCC2)c2sc(NC(=O)c3ccc(F)cc3)nc12 [Example 1, 4-Fluoro-N-(7-methoxy-4-morpholin-4-yl-thiazolo[5,4-c]pyridin-2-yl)-benzamide] | 420 | 0.00417 | 1.78 |
| COc1ccc(C(=O)Nc2nc3c(OC)cnc(N4CCOCC4)c3s2)cc1 [Example 3, 4-Methoxy-N-(7-methoxy-4-morpholin-4-yl-thiazolo[5,4-c]pyridin-2-yl)-benzamide] | 384 | 0.00501 | 1.91 |
| COc1cnc(N2CCOCC2)c2sc(NC(=O)c3ccnc(C)c3)nc12 [Example 4, N-(7-Methoxy-4-morpholin-4-yl-thiazolo[5,4-c]pyridin-2-yl)-2-methyl-isonicotinamide] | 512 | 0.0112 | 5.75 |
| COc1cc(C(=O)Nc2nc3c(OC)cnc(N4CCOCC4)c3s2)ccn1 [Example 5, 2-Methoxy-N-(7-methoxy-4-morpholin-4-yl-thiazolo[5,4-c]pyridin-2-yl)-isonicotinamide] | 489 | 0.0129 | 6.31 |
| COc1cnc(N2CCOCC2)c2sc(NC(=O)c3cccc(F)c3)nc12 [Example 6, 3-Fluoro-N-(7-methoxy-4-morpholin-4-yl-thiazolo[5,4-c]pyridin-2-yl)-benzamide] | 312 | 0.00537 | 1.66 |
| COc1cccc(C(=O)Nc2nc3c(OC)cnc(N4CCOCC4)c3s2)c1 [Example 7, 3-Methoxy-N-(7-methoxy-4-morpholin-4-yl-thiazolo[5,4-c]pyridin-2-yl)-benzamide] | 436 | 0.00309 | 1.35 |
| COc1ccc(C(=O)Nc2nc3c(OC)cnc(N4CCOCC4)c3s2)cc1OC [Example 8, 3,4-Dimethoxy-N-(7-methoxy-4-morpholin-4-yl-thiazolo[5,4-c]pyridin-2-yl)-benzamide] | 535 | 0.0138 | – |
| COc1cnc(N2CCOCC2)c2sc(NC(=O)c3ccc4c(c3)OCO4)nc12 [Example 9, Benzo [1,3]dioxole-5-carboxylic acid (7-methoxy-4-morpholin-4-yl-thiazolo[5,4-c]pyridin-2-yl)-amide] | 527 | 0.00724 | 3.8 |
| COc1cnc(N2CCOCC2)c2sc(NC(=O)CC3CCOCC3)nc12 [Example 11, N-(7-Methoxy-4-morpholin-4-yl-thiazolo[5,4-c]pyridin-2-yl)-2-(tetrahydro-pyran-4-yl)-acetamide] | 310 | 0.0162 | 5.01 |
| COc1cnc(N2CCOCC2)c2sc(NC(=O)c3ccncc3)nc12 [Example 17, N-(7-Methoxy-4-morpholin-4-yl-thiazolo[5,4-c]pyridin-2-yl)-isonicotinamide] | 258 | 0.0219 | 5.62 |
| COc1cnc(N2CCOCC2)c2sc(NC(=O)c3ccnc(N4CC(O)C4)c3)nc12 [Example 18, 2-(3-Hydroxy-azetidin-1-yl)-N-(7-methoxy-4-morpholin-4-yl-thiazolo[5,4-c]pyridin-2-yl)-isonicotinamide] | 868 | 0.00794 | – |
| COc1cnc(N2CCOCC2)c2sc(NC(=O)c3ccnc(N4CC(OC)C4)c3)nc12 [Example 19, 2-(3-Methoxy-azetidin-1-yl)-N-(7-methoxy-4-morpholin-4-yl-thiazolo[5,4-c]pyridin-2-yl)-isonicotinamide] | 347 | 0.0055 | 1.91 |
| COc1ccc(C(=O)Nc2nc3c(OC)cnc(N4CCOCC4)c3s2)cn1 [Example 21, 6-Methoxy-N-(7-methoxy-4-morpholin-4-yl-thiazolo[5,4-c]pyridin-2-yl)-nicotinamide] | 519 | 0.0141 | – |
| COc1cnc(N2CCOCC2)c2sc(NC(=O)c3ccnc(N4CCOCC4)c3)nc12 [Example 22, N-(7-Methoxy-4-morpholin-4-yl-thiazolo[5,4-c]pyridin-2-yl)-2-morpholin-4-yl-isonicotinamide] | 1647 | 0.00389 | 6.46 |
| COc1cnc(N2CCOCC2)c2sc(NC(=O)c3ccc(N4CCOCC4)cc3)nc12 [Example 29, N-(7-Methoxy-4-morpholin-4-yl-thiazolo[5,4-c]pyridin-2-yl)-4-morpholin-4-yl-benzamide] | 572 | 0.0126 | – |
| COc1cnc(N2CCOCC2)c2sc(NC(=O)c3cccc(N4CCOCC4)c3)nc12 [Example 30, N-(7-Methoxy-4-morpholin-4-yl-thiazolo[5,4-c]pyridin-2-yl)-3-morpholin-4-yl-benzamide] | 1716 | 0.00407 | 7.08 |
| COCCN(C)Cc1ccc(C(=O)Nc2nc3c(OC)cnc(N4CCOCC4)c3s2)cc1 [Example 31, 4-{[(2-Methoxy-ethyl)-methyl-amino]-methyl}-N-(7-methoxy-4-morpholin-4-yl-thiazolo[5,4-c]pyridin-2-yl)-benzamide] | 441 | 0.0138 | 6.03 |
| COc1cnc(N2CCOCC2)c2sc(NC(=O)c3ccnc(CN4CCOCC4)c3)nc12 [Example 33, N-(7-Methoxy-4-morpholin-4-yl-thiazolo[5,4-c]pyridin-2-yl)-2-morpholin-4-ylmethyl-isonicotinamide] | 291 | 0.0251 | – |
| COc1cnc(N2CCOCC2)c2sc(NC(=O)N3CCC(CO)CC3)nc12 [Example 36, 4-Hydroxymethyl-piperidine-1-carboxylic acid (7-methoxy-4-morpholin-4-yl-thiazolo[5,4-c]pyridin-2-yl)-amide] | 468 | 0.00676 | 3.16 |
| COc1cnc(N2CCOCC2)c2sc(NC(=O)N3CCC4(CCN(C)C4=O)CC3)nc12 [Example 37, 2-Methyl-1-oxo-2,8-diaza-spiro [4.5] decane-8-carboxylic acid (7-methoxy-4-morpholin-4-yl-thiazolo[5,4-c]pyridin-2-yl)-amide] | 346 | 0.0209 | – |
| COc1cnc(N2CCOCC2)c2sc(NC(=O)c3ccc(CN4CCOCC4)cc3)nc12 [Example 39, N-(7-Methoxy-4-morpholin-4-yl-thiazolo[5,4-c]pyridin-2-yl)-4-morpholin-4-ylmethyl-benzamide] | 446 | 0.0162 | – |
| COc1cnc(N2CCOCC2)c2sc(NC(=O)N3CCC4(CCCO4)CC3)nc12 [Example 40, 1-Oxa-8-aza-spiro[4.5]decane-8-carboxylic acid (7-methoxy-4-morpholin-4-yl-thiazolo[5,4-c]pyridin-2-yl)-amide] | 387 | 0.0155 | 5.89 |
| COc1cnc(N2CCOCC2)c2sc(NC(=O)N3CCC(C)(CO)CC3)nc12 [Example 43, 4-Hydroxymethyl-4-methyl-piperidine-1-carboxylic acid (7-methoxy-4-morpholin-4-yl-thiazolo[5,4-c]pyridin-2-yl)-amide] | 593 | 0.0117 | 7.08 |
